Experiment [1] concerns 2LMP human breast cancer xenografts. Nature of the experiment: TRA-8 therapy alone or with chemotherapy or radiation in mice bearing breast cancer xenografts. Format: in vivo, Athymic nude mice. As to conditions: Figure 25 experiment; 200 µg TRA-8 i.p., adriamycin 6 mg/kg i.v. As to the method:
Athymic nude mice were injected s.c. with 3 x 10^7 2LMP cells. […] The growth of tumors was monitored over time. […] Tumor size and regression rates were determined.
Data from 6 independent experiments were analyzed by individual experiment. Treatment combinations were compared with respect to in vivo anti-tumor efficacy, i.e., inhibition of tumor growth, which was measured as three endpoints; extension of tumor doubling times, percentage of tumor regressions, and growth rates over time. The actual number of days at which the tumor doubled in surface area (product of two diameters) relative to baseline on day 7 after tumor cell injection was used in the doubling time analysis. The nonparametric Kruskal-Wallis test was used for median tumor doubling time comparisons between treatments. Fisher's exact test was used to compare the proportions of tumor regressions and relapse-free regressions across treatment groups. […]
A total of 166 animals, 10 treatment groups, and 6 independent experiments were included in the aggregate analysis. […] The median tumor doubling times were analyzed using the Kruskal-Wallis test and Fisher's exact test was used to compare the proportions of tumor regressions and relapse-free regressions across treatment groups.

The subject of another experiment is 2LMP xenografts. The experiment in a line: Analysis of apoptosis in xenografts, TUNEL. Format: in vivo, Athymic nude mice. As to conditions: for stained cells: day 14, 100 µg TRA-8 days 7 and 10, adriamycin 3 mg/kg or paclitaxel 10 mg/kg days 8 and 11, untreated 4%; for intense stained cells: day 14, same doses, untreated 1%. As to the method:
One group of mice was untreated. The xenografts were dissected for the study of apoptosis on day 14 after tumor cell injection. The reason for the substantial reduction in treatment intensity compared to our standard treatment protocol was to allow adequate tumor tissue for analysis on day 14. Tunel assay for apoptosis in tumor xenografts was performed as follows. Five-micron paraffin sections of tissue were mounted on Superfrost/Plus slides and heated at 58°C for 1 h. Tissue sections were deparaffinized in three changes of xylene and rehydrated with one change of absolute ethanol, 95% ethanol, and 70% ethanol, each in 5-min increments. Then, the sections were placed in Tris-buffered saline (0.5M Tris base, 0.15 M NaCl, 0.0002% Triton X-100, pH 7.6). Apoptotic nuclei were detected using an Apop Tag Peroxidase kit (Intergen, Purchase, NY). Proteinase K (20 µg/ml in distilled deionized H2O) was added to the tissue specimens and incubated at room temperature for 15 min. Endogenous peroxidases were quenched with an aqueous solution of 3% hydrogen peroxide for 5 min. Sections were treated with an equilibration buffer for 30 min and then incubated with the TdT/enzyme (diluted in labeling reaction mix) for 1 h at 37°C using parafilm covers. During this incubation, the TdT enzyme binds the 3'-OH ends of DNA fragments and catalyzes the addition of digoxigenin-labeled and unlabeled deoxynucleotides. Negative controls were incubated with distilled H2O (diluted in labeling reaction mix) instead of the TdT enzyme. A stop buffer was added for 10 min at room temperature to terminate the labeling reaction. An anti-digoxigenin conjugate was added to each slide for 30 min. The chromagen 3,3' DAB was used to visualize the labeled 3' OH end of DNA fragments. The slides were then rinsed in deionized water and lightly counterstained with hematoxylin, dehydrated using graded alcohols and xylene and coverlsipped using Permount. Approximately 10 random fields were evaluated for percentage of Tunel stained and percentage of intensely stained apoptotic bodies throughout the tissue.

The test system of a further experiment is PC-3 cells. Nature of the experiment: Combination study of TRA-8 with Paclitaxel, XTT viability. It counts as cell-based. As to conditions: Homo sapiens, PC-3, read-out: cell viability. As to the method: Human prostate cancer cell line PC-3 is obtained from American Tissue Culture Collection (ATCC) and maintained in F-12K Nutrient Mixture (21127-022, Gibco BRL) containing 10% fetal bovine serum (FBS, Hyclone), 1% L-Glutamine-200 mM (25030-149, Gibco BRL) and 0.5% Penicillin Streptomycin Solution (P-7539, Sigma). RPMI1640 medium (MED-008, IWAKI) supplemented with 10% FBS and 0.5% Penicillin Streptomycin Solution is used in the following experiment. Exponentially growing PC-3 cells are collected by trypsinization and washed twice with fresh medium. The cells are then counted, resuspended in fresh medium at a density of 5 x 10^4 cells/ml and distributed in triplicate into flat-bottomed 96 well plates (3598, Corning-Coster) in a total volume of 100 µl/well one day before the start of the experiment. A representative anti-cancer drug, Paclitaxel (169-18611, Wako) dissolved in dimethylsulfoxide (10 mg/ml) is diluted in fresh medium and then added to the 96-well plates containing the cells at 50 µl/well. The final concentrations of dimethylsulfoxide are less than 0.1%. […] After incubation for a further 24 hr, 50 µl of Minimum Essential Medium (11095-098, Gibco BRL) containing 1 mg/ml of XTT and […] of PMS is added to the wells and the plates are incubated for 6 hr. OD450 is then measured by SPECTRA MAX 250 (Molecular Devices) and the cell viability is calculated as follows.
For orientation: Tetrazolium dyes change colour on reduction, which living cells bring about.

The subject of the next experiment is Jurkat cells. The experiment in a line: Caspase inhibition assay, Jurkat cells with TRA-8. It counts as cell-based, human. As to conditions: 50 ng/ml TRA-8 overnight.

Structures are written as SMILES. Residues, ends and D or L forms follow the SMILES beside them. *: point of attachment. Cbz = O=C(OCc1ccccc1)*; CH2F = FC*

Procedure for Jurkat cells: Cell viability was determined by ATPLite, MTT, and PI exclusion assays after overnight culture. […] Cell viability was determined by ATPLite. […] Cell viability was determined by ATPLite. The results are presented as mean±SEM of triplicate cultures of two experiments. d. […] Cell viability was determined by ATPLite assay. […] Cell viability of hepatocytes was determined by the ATPLite assay. […] Cell viability was determined by the ATPLite assay.

Regarding `COc1cccc2c1C(=O)c1c(O)c3c(c(O)c1C2=O)C[C@@](O)(C(=O)CO)C[C@@H]3O[C@H]1C[C@H](N)[C@H](O)[C@H](C)O1` [Adriamycin, doxorubicin], in experiment [1], the “inhibition of tumor growth compared to untreated controls” value was “did not differ from controls”. Besides, in the experiment with 2LMP xenografts, the stained cells was 8% and the intense stained cells was found to be 6%.
As a reminder, the viability is the share of living cells, or the viability signal relative to a control. Turning to `CC(=O)O[C@H]1C(=O)[C@@]2(C)[C@H]([C@H](OC(=O)c3ccccc3)[C@]3(O)C[C@H](OC(=O)[C@H](O)[C@@H](NC(=O)c4ccccc4)c4ccccc4)C(C)=C1C3(C)C)[C@]1(OC(C)=O)CO[C@@H]1C[C@@H]2O` [Paclitaxel], in the experiment on 2LMP xenografts, the stained cells is on record as 7% and the intense stained cells was 2%. The viability at 0.2 µM in the experiment with PC-3 cells is greater than 40%.
As to `CC(NC(=O)C(NC(=O)OCc1ccccc1)C(C)C)C(=O)NC(CC(=O)O)C(=O)CF` (stereo not drawn) [Z-VAD] (Cbz-Val-Ala-Asp-CH2F; configuration not given here), the “inhibition of TRA-8-mediated cell death” value in the experiment on Jurkat cells was “completely inhibited”.
